Test results reported in PMC9182378, “Bicyclic Isoxazoline Derivatives: Synthesis and Evaluation of Biological Activity” (Molecules, 2022).

Assays:
[1] = test system: Rimantadine-resistant M2 proton channel; set-up: method as in PMID 27187859; conditions: cited from earlier work
A. niger [2] = assay: Minimum inhibitory concentration (CLSI); type: cell-based, Aspergillus niger
C. albicans [3] = assay: Minimum inhibitory concentration (CLSI); type: cell-based, Candida albicans
E. coli = assay: Minimum inhibitory concentration (CLSI); type: cell-based, Escherichia coli
B. subtilis [4] = assay: Minimum inhibitory concentration (CLSI); type: cell-based, Bacillus subtilis
HCT-116 = assay: MTT assay cytotoxicity; type: cell-based; conditions: Homo sapiens, HCT-116 (colon cancer), 72 h
C. albicans [5] = assay: Agar-diffusion assay (zone of inhibition); conditions: Candida albicans, CBS8836, 24 h
Protocol: (§1) Initial screening of antimicrobial activity was performed by using agar-diffusion assay against a number of microorganisms: fungi (Aspergillus niger INA 00760), yeast (Candida albicans CBS 8836), gram-positive bacteria (Bacillus subtilis ATCC 6633, Staphylococcus aureus ATCC 25923) and gram-negative bacteria (Escherichia coli ATCC 25922). For the bacterial strains, the agar-diffusion method on the Mueller–Hinton medium was performed using direct colony suspension, equivalent to a 0.5 McFarland standard as inoculate. For the fungal test-strains, the Sabouraud medium was used with 0.2% glucose, inoculated with direct colony suspension (10^6 CFU/100 mL). The tested compounds were applied on Petri dishes on sterile paper disks (6 mm); 100 µg/disk inhibition zones were measured after 24 h incubation at 37 °C. As a positive control, standard antibiotic disks containing 30 µg vancomycin (for B. subtilis), 10 µg gentamicin (for E. coli), and 40 µg fluconazole (for A. niger and C. albicans) were used.

WI38 = assay: MTT assay cytotoxicity; type: cell-based; conditions: Homo sapiens, WI-38, WI38 (fibroblasts, normal), 72 h
A. niger [6] = assay: Agar-diffusion assay (zone of inhibition); conditions: Aspergillus niger, 24 h
Protocol: as §1

[7] = test system: cancer or normal cell lines; assay: MTT assay cytotoxicity, summary over the cell line panel; conditions: for IC50: read-out: IC50 against cancer cell lines (range over compounds and lines); for toxicity against cancer or normal cell lines: either cancer or normal cell lines
B. subtilis [8] = assay: Agar-diffusion assay (zone of inhibition); conditions: Bacillus subtilis, ATCC6633, 24 h
Protocol: as §1

St. aureus [9] = assay: Minimum inhibitory concentration (CLSI); type: cell-based, Staphylococcus aureus; conditions: ATCC 29213 strain used for MIC
Protocol: Minimum inhibitory concentrations (MIC) were determined for the selected active strains according to the Performance Standards for Antimicrobial Susceptibility Testing (CLSI). The Staphylococcus aureus ATCC 29213 strain was used for MIC measurements. Amphotericin B, clotrimazole, vancomycin and ampicillin were used as positive control.

A-549 = assay: MTT assay cytotoxicity; type: cell-based; conditions: Homo sapiens, A549, A-549 (lung cancer), 72 h
MCF-7 = assay: MTT assay cytotoxicity; type: cell-based; conditions: Homo sapiens, MCF7, MCF-7 (breast cancer), 72 h
St. aureus [10] = assay: Agar-diffusion assay (zone of inhibition); conditions: Staphylococcus aureus, ATCC25923, 24 h
Protocol: as §1

in vitro = conditions: dog
Hek293t = assay: MTT assay cytotoxicity; type: cell-based; conditions: Homo sapiens, HEK-293T, Hek293t (embryonic kidney, normal), 72 h

Row | SMILES | melting point | IC50 (HCT-116) [µM] | IC50 (WI38) [µM] | IC50 (A-549) [µM] | IC50 (MCF-7) [µM] | also measured
1 | CC1CCC2(CC1)SC(N)=NC2(C)C (stereo not drawn) [A, spirothiazamenthane] |  |  |  |  |  | activity against the Rimantadine-resistant M2 proton channel [1]: inactive
2 | C[C@@H]1[C@H](O)[C@@H](C)/C=C/C=C/C=C/C=C/C=C/C=C/C=C/[C@H](O[C@@H]2O[C@H](C)[C@@H](O)[C@H](N)[C@@H]2O)C[C@@H]2O[C@](O)(C[C@@H](O)C[C@@H](O)[C@H](O)CC[C@@H](O)C[C@@H](O)CC(=O)O[C@H]1C)C[C@H](O)[C@H]2C(=O)O [Amphotericin B, reference compound] |  |  |  |  |  | MIK (A. niger [2]): 0.04 to 1.5 µg/mL; MIK (C. albicans [3]): 2 µg/mL
3 | CC1(C)S[C@@H]2[C@H](NC(=O)[C@H](N)c3ccccc3)C(=O)N2[C@H]1C(=O)O [Ampicillin, reference compound] |  |  |  |  |  | MIK (E. coli): 2 to 8 µg/mL
4 | Clc1ccccc1C(c1ccccc1)(c1ccccc1)n1ccnc1 [Clotrimazole, reference compound] |  |  |  |  |  | MIK (C. albicans [3]): 4 µg/mL
5 | O=[N+]([O-])C1=NOC2(CCCCCCC2)C1 [Compound 1, 3-Nitro-1-oxa-2-azaspiro[4.7]dodec-2-ene] | 55 to 57 °C | 20.8 ± 5 | 42.2 ± 13 | 57.1 ± 7 | 58.8 ± 5 | MIK (B. subtilis [4]): 32 µg/mL; MIK (A. niger [2]): 8 µg/mL; MIK (E. coli): > 256 µg/mL; zone of inhibition at 100 µg/disc (C. albicans [5]): 24 mm; zone of inhibition at 100 µg/disc (A. niger [6]): 15 mm; IC50 [7]: 17.7 to 58.8 µM; MIK (C. albicans [3]): 8 µg/mL; zone of inhibition at 100 µg/disc (B. subtilis [8]): 12 mm; MIK (St. aureus [9]): 32 µg/mL; zone of inhibition at 100 µg/disc (St. aureus [10]): 15 mm
6 | O=[N+]([O-])C1=NOC2CCCCCCC12 (stereo not drawn) [Compound 2, 3-Nitro-3a,4,5,6,7,8,9,9a-octahydrocycloocta[d]isoxazole] | 52 to 53 °C | 17.7 ± 5 | 27.4 ± 4 | 40.4 ± 2.5 | 35.4 ± 4.5 | MIK (B. subtilis [4]): 32 µg/mL; MIK (A. niger [2]): 16 µg/mL; MIK (E. coli): > 256 µg/mL; zone of inhibition at 100 µg/disc (C. albicans [5]): 19 mm; zone of inhibition at 100 µg/disc (A. niger [6]): 15 mm; IC50 [7]: 17.7 to 58.8 µM; MIK (C. albicans [3]): 32 µg/mL; zone of inhibition at 100 µg/disc (B. subtilis [8]): 16 mm; MIK (St. aureus [9]): 8 to 16 µg/mL; zone of inhibition at 100 µg/disc (St. aureus [10]): 25 mm
7 | NC1=NOC2(CCCCCCC2)C1 [Compound 3, 1-Oxa-2-azaspiro[4.7]dodec-2-en-3-amine] |  | > 500 | > 150 | > 150 | > 150 | CC50 (in vitro): > 550 µM; toxicity against cancer or normal cell lines [7]: not toxic
8 | NC1=NOC2CCCCCCC12 (stereo not drawn) [Compound 4, 3a,4,5,6,7,8,9,9a-Octahydrocycloocta[d]isoxazol-3-amine] |  | > 500 | > 150 | > 150 | > 150 | CC50 (in vitro): > 1790 µM; toxicity against cancer or normal cell lines [7]: not toxic
9 | CS(=O)(=O)NC1=NOC2(CCCCCCC2)C1 [Compound 5a, N-(1-Oxa-2-azaspiro[4.7]dodec-2-en-3-yl)methanesulfonamide] | 110 to 111 °C |  |  |  |  | 
10 | O=S(=O)(Cc1ccccc1)NC1=NOC2(CCCCCCC2)C1 [Compound 5b, N-(1-Oxa-2-azaspiro[4.7]dodec-2-en-3-yl)-1-phenylmethanesulfonamide] | 68 to 70 °C | > 200 | > 500 |  | 138 ± 25 | 
11 | O=S(=O)(NC1=NOC2(CCCCCCC2)C1)c1ccccc1 [Compound 5c, N-(1-Oxa-2-azaspiro[4.7]dodec-2-en-3-yl)benzenesulfonamide] | 156 to 157 °C | 63 ± 18 | 113 | 163 | 116 ± 30 | 
12 | Cc1ccc(S(=O)(=O)NC2=NOC3(CCCCCCC3)C2)cc1 [Compound 5d, 4-Methyl-N-(1-oxa-2-azaspiro[4.7]dodec-2-en-3-yl)benzenesulfonamide] | 122 to 124 °C |  | 54.6 ± 7 | 143 ± 50 | 94 ± 30 | 
13 | Cc1cc(C)c(S(=O)(=O)NC2=NOC3(CCCCCCC3)C2)c(C)c1 [Compound 5e, 2,4,6-Trimethyl-N-(1-oxa-2-azaspiro[4.7]dodec-2-en-3-yl)benzenesulfonamide] | 135 to 136 °C | 70.1 ± 11.2 | 95.5 ± 14.3 | 61 ± 21 | 79 ± 36 | 
14 | O=S(=O)(NC1=NOC2(CCCCCCC2)C1)c1ccc2c(c1)OCCO2 [Compound 5f, N-(1-Oxa-2-azaspiro[4.7]dodec-2-en-3-yl)-2,3-dihydrobenzo[b][1,4]dioxine-6-sulfonamide] | 192 to 194 °C | 23.6 ± 4.5 | 42 ± 8.6 | 119 | 64.1 ± 8 | 
15 | CC(=O)Nc1ccc(S(=O)(=O)NC2=NOC3(CCCCCCC3)C2)cc1 [Compound 5g, N-(4-(N-1-Oxa-2-azaspiro[4.7]dodec-2-en-3-ylsulfamoyl)phenyl)acetamide] | 171 to 173 °C (dec.) | 41.3 ± 17 |  | 54 ± 14 | 54.5 ± 15 | IC50 [7]: 17.7 to 58.8 µM; IC50 (Hek293t): 30.4 ± 14.5 µM
16 | O=S(=O)(NC1=NOC2(CCCCCCC2)C1)c1ccc(F)cc1F [Compound 5h, 2,4-Difluoro-N-(1-oxa-2-azaspiro[4.7]dodec-2-en-3-yl)benzenesulfonamide] | 118 to 119 °C | 97.1 ± 34 |  | 77.1 ± 10.2 | 94.7 ± 15.5 | IC50 (Hek293t): 60 ± 17 µM
17 | O=[N+]([O-])c1ccccc1S(=O)(=O)NC1=NOC2(CCCCCCC2)C1 [Compound 5i, 2-Nitro-N-(1-oxa-2-azaspiro[4.7]dodec-2-en-3-yl)benzenesulfonamide] | 164 to 165 °C |  |  |  |  | 
18 | O=S(=O)(NC1=NOC2(CCCCCCC2)C1)c1ccc2ccccc2c1 [Compound 5j, N-(1-Oxa-2-azaspiro[4.7]dodec-2-en-3-yl)naphthalene-2-sulfonamide] | 143 to 145 °C | 19 ± 3 |  | 27.5 ± 4.2 | 26.8 ± 3.5 | IC50 [7]: 17.7 to 58.8 µM; IC50 (Hek293t): 23.1 ± 6.5 µM
19 | O=S(=O)(NC1=NOC2(CCCCCCC2)C1)c1cccs1 [Compound 5k, N -(1-Oxa-2-azaspiro[4.7]dodec-2-en-3-yl)thiophene-2-sulfonamide] | 149 to 151 °C | 131 ± 80 |  | 111 ± 20 | > 150 | IC50 (Hek293t): 65.5 ± 13.5 µM
20 | O=S(=O)(NC1=NOC2(CCCCCCC2)C1)c1cccnc1 [Compound 5l, N -(1-Oxa-2-azaspiro[4.7]dodec-2-en-3-yl)pyridine-3-sulfonamide] | 145 to 146 °C | 133 ± 68 |  | > 150 | > 150 | IC50 (Hek293t): > 500 µM
21 | CC(N)C12CC3CC(CC(C3)C1)C2 (stereo not drawn) [Rimantadine, reference compound] |  |  |  |  |  | CC50 (in vitro): 406 ± 26 µM
22 | CN[C@H](CC(C)C)C(=O)N[C@H]1C(=O)N[C@@H](CC(N)=O)C(=O)N[C@H]2C(=O)N[C@H]3C(=O)N[C@H](C(=O)N[C@H](C(=O)O)c4cc(O)cc(O)c4-c4cc3ccc4O)[C@H](O)c3ccc(c(Cl)c3)Oc3cc2cc(c3O[C@@H]2O[C@H](CO)[C@@H](O)[C@H](O)[C@H]2O[C@H]2C[C@](C)(N)[C@H](O)[C@H](C)O2)Oc2ccc(cc2Cl)[C@H]1O [Vancomycin, reference compound] |  |  |  |  |  | MIK (B. subtilis [4]): 0.25 to 1 µg/mL; MIK (St. aureus [9]): 0.5 to 2 µg/mL
